# Measurements published in patent US20240299385A1 (ReWind Therapeutics NV, priority 2021, published 2024).
# Target: T1, human GPR17 receptor (Homo sapiens, UniProt Q13304)
# T1 construct: host or cells: HEK-293
# Assay: Calcium mobilization functional assay (Fluo-8, FLIPR TETRA) in HEK-293 hGPR17 (Gα-q assay)
# Format: cell-based
# Details: antagonism of MDL29,951 (~EC80) induced Ca2+ signal; cell line (HEK-293 hGPR17 or HEK-293 Suchi5 hGPR17) not given
# Procedure, shortened: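 Fluo-8-loaded HEK-293 hGPR17 cells (60 min dye loading, room temperature) were preincubated with compound for twenty minutes, then challenged with agonist MDL29,951 at ~EC80, 500 nM. Intracellular calcium release via Gα-q was recorded as FLIPR fluorescence for a further 2 minutes; compounds tested in duplicate.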
# T1 sequence (Q13304 whole entry): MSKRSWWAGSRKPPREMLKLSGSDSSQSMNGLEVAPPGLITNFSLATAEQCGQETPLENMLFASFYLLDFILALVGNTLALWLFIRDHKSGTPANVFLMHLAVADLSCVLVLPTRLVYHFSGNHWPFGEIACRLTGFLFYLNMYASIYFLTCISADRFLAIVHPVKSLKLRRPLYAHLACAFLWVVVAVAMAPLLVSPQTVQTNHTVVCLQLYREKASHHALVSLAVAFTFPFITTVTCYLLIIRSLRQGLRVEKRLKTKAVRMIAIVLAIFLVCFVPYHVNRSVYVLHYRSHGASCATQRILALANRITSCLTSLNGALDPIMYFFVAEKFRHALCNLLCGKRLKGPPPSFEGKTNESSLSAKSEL
row,SMILES,IC50
1,"O=S(=O)(Nc1ccc(C(F)(F)F)nc1F)c1c[nH]c(-c2ccccc2)c1 [Cpd 186, N-[2-fluoro-6-(trifluoromethyl)-3-pyridyl]-5-phenyl-1H-pyrrole-3-sulfonamide]",0.5 to 5 µM
2,"O=S(=O)(Nc1cc2cccnc2cc1F)c1c[nH]c(-c2ccccc2)c1 [Cpd 187, N-(7-fluoro-6-quinolyl)-5-phenyl-1H-pyrrole-3-sulfonamide]",0.5 to 5 µM
3,"O=S(=O)(Nc1ccc(OC(F)F)nc1F)c1c[nH]c(-c2ccccc2)c1 [Cpd 188, N-[6-(difluoromethoxy)-2-fluoro-3-pyridyl]-5-phenyl-1H-pyrrole-3-sulfonamide]",0.5 to 5 µM
4,"O=S(=O)(Nc1cc(F)c(C(F)(F)F)cc1F)c1c[nH]c(-c2ccc(F)cn2)c1 [Cpd 189, N-[2,5-difluoro-4-(trifluoromethyl)phenyl]-5-(5-fluoro-2-pyridyl)-1H-pyrrole-3-sulfonamide]",0.5 to 5 µM
5,"O=S(=O)(Nc1ccc(C(F)(F)F)c(F)c1)c1c[nH]c(-c2ccccn2)c1 [Cpd 190, N-[3-fluoro-4-(trifluoromethyl)phenyl]-5-(2-pyridyl)-1H-pyrrole-3-sulfonamide]",0.5 to 5 µM
6,"COc1ncccc1-c1cc(S(=O)(=O)Nc2cc(F)c(C(F)(F)F)cc2F)c[nH]1 [Cpd 191, N-[2,5-difluoro-4-(trifluoromethyl)phenyl]-5-(2-methoxy-3-pyridyl)-1H-pyrrole-3-sulfonamide]",< 0.5 µM
7,"O=S(=O)(Nc1ncc(Cl)cc1F)c1c[nH]cc1Cc1ccccc1 [Cpd 192, 4-benzyl-N-(5-chloro-3-fluoro-2-pyridyl)-1H-pyrrole-3-sulfonamide]",5 to 50 µM
8,"O=S(=O)(Nc1cc(F)c(Br)cc1F)c1c[nH]cc1Cc1ccccc1 [Cpd 193, 4-benzyl-N-(4-bromo-2,5-difluoro-phenyl)-1H-pyrrole-3-sulfonamide]",0.5 to 5 µM
9,"N#Cc1ccc(NS(=O)(=O)c2c[nH]cc2Cc2ccccc2Cl)c(F)c1 [Cpd 194, 4-[(2-chlorophenyl)methyl]-N-(4-cyano-2-fluoro-phenyl)-1H-pyrrole-3-sulfonamide]",0.5 to 5 µM
10,"N#Cc1ccc(NS(=O)(=O)c2c[nH]cc2C(=O)c2ccccc2)c(F)c1 [Cpd 195, 4-benzoyl-N-(4-cyano-2-fluoro-phenyl)-1H-pyrrole-3-sulfonamide]",0.5 to 5 µM
11,"COc1ccc(F)c(NS(=O)(=O)c2c[nH]c(-c3ccccn3)c2)c1 [Cpd 196, N-(2-fluoro-5-methoxy-phenyl)-5-(2-pyridyl)-1H-pyrrole-3-sulfonamide]",5 to 50 µM
12,"O=S(=O)(Nc1cc(F)c(C(F)(F)F)cc1F)c1c[nH]c(-c2ccc(Cl)cn2)c1 [Cpd 197, 5-(5-chloro-2-pyridyl)-N-[2,5-difluoro-4-(trifluoromethyl)phenyl]-1H-pyrrole-3-sulfonamide]",5 to 50 µM
13,"COc1cc(C(F)(F)F)cnc1NS(=O)(=O)c1c[nH]c(-c2ccccn2)c1 [Cpd 198, N-[3-methoxy-5-(trifluoromethyl)-2-pyridyl]-5-(2-pyridyl)-1H-pyrrole-3-sulfonamide]",0.5 to 5 µM
14,"O=S(=O)(Nc1cc(C(F)(F)F)ncc1F)c1c[nH]c(-c2ccccc2)c1 [Cpd 199, N-[5-fluoro-2-(trifluoromethyl)-4-pyridyl]-5-phenyl-1H-pyrrole-3-sulfonamide]",5 to 50 µM
15,"CC(=O)c1ccc(NS(=O)(=O)c2c[nH]c(-c3ccccn3)c2)c(F)c1 [Cpd 200, N-(4-acetyl-2-fluoro-phenyl)-5-(2-pyridyl)-1H-pyrrole-3-sulfonamide]",5 to 50 µM
16,"N#CCc1cnc(NS(=O)(=O)c2c[nH]c(-c3ccccn3)c2)c(F)c1 [Cpd 201, N-[5-(cyanomethyl)-3-fluoro-2-pyridyl]-5-(2-pyridyl)-1H-pyrrole-3-sulfonamide]",5 to 50 µM
17,"O=S(=O)(Nc1cc(F)c(Cl)cc1F)c1c[nH]c(-c2ccccn2)c1 [Cpd 202, N-(4-chloro-2,5-difluoro-phenyl)-5-(2-pyridyl)-1H-pyrrole-3-sulfonamide]",< 0.5 µM
18,CCOC(=O)c1ccc(NS(=O)(=O)c2c[nH]c(-c3ccccn3)c2)c(F)c1 [Cpd 203],0.5 to 5 µM
19,"O=S(=O)(Nc1cc(F)c(C(F)(F)F)cc1F)c1c[nH]c(-c2ncccc2Cl)c1 [Cpd 204, 5-(3-chloro-2-pyridyl)-N-[2,5-difluoro-4-(trifluoromethyl)phenyl]-1H-pyrrole-3-sulfonamide]",< 0.5 µM
20,"O=S(=O)(Nc1cc(F)c(OC(F)F)cc1F)c1c[nH]c(-c2ccccn2)c1 [Cpd 205, N-[4-(difluoromethoxy)-2,5-difluoro-phenyl]-5-(2-pyridyl)-1H-pyrrole-3-sulfonamide]",< 0.5 µM
21,"N#Cc1ccc(NS(=O)(=O)c2c[nH]cc2Cc2cccc(Cl)c2)c(F)c1 [Cpd 206, 4-[(3-chlorophenyl)methyl]-N-(4-cyano-2-fluoro-phenyl)-1H-pyrrole-3-sulfonamide]",< 0.5 µM
22,"N#Cc1ccc(NS(=O)(=O)c2c[nH]cc2C(O)c2ccccc2)c(F)c1 (stereo not shown) [Cpd 207, N-(4-cyano-2-fluoro-phenyl)-4-[hydroxy(phenyl)methyl]-1H-pyrrole-3-sulfonamide]",5 to 50 µM

row,SMILES,IC50
1,"N#Cc1ccc(NS(=O)(=O)c2c[nH]cc2Cc2ccc(Cl)cc2)c(F)c1 [Cpd 208, 4-[(4-chlorophenyl)methyl]-N-(4-cyano-2-fluoro-phenyl)-1H-pyrrole-3-sulfonamide]",0.5 to 5 µM
2,"COc1ccc(Cc2c[nH]cc2S(=O)(=O)Nc2ccc(C#N)cc2F)cc1 [Cpd 209, N-(4-cyano-2-fluoro-phenyl)-4-[(4-methoxyphenyl)methyl]-1H-pyrrole-3-sulfonamide]",5 to 50 µM
3,"COc1cccc(Cc2c[nH]cc2S(=O)(=O)Nc2ccc(C#N)cc2F)c1 [Cpd 210, N-(4-cyano-2-fluoro-phenyl)-4-[(3-methoxyphenyl)methyl]-1H-pyrrole-3-sulfonamide]",< 0.5 µM
4,"COc1ccccc1Cc1c[nH]cc1S(=O)(=O)Nc1ccc(C#N)cc1F [Cpd 211, N-(4-cyano-2-fluoro-phenyl)-4-[(2-methoxyphenyl)methyl]-1H-pyrrole-3-sulfonamide]",0.5 to 5 µM
5,"O=S(=O)(Nc1cc(F)c(C(F)(F)F)cc1F)c1c[nH]c(-c2cc(Cl)ccn2)c1 [Cpd 214, 5-(4-chloro-2-pyridyl)-N-[2,5-difluoro-4-(trifluoromethyl)phenyl]-1H-pyrrole-3-sulfonamide]",0.5 to 5 µM
6,"O=S(=O)(Nc1cc(F)c(C(F)(F)F)cc1F)c1c[nH]c(-c2cccc(Cl)n2)c1 [Cpd 215, 5-(6-chloro-2-pyridyl)-N-[2,5-difluoro-4-(trifluoromethyl)phenyl]-1H-pyrrole-3-sulfonamide]",< 0.5 µM
7,"C#Cc1cnc(NS(=O)(=O)c2c[nH]c(-c3ccccc3)c2)c(F)c1 [Cpd 216, N-(5-ethynyl-3-fluoro-2-pyridyl)-5-phenyl-1H-pyrrole-3-sulfonamide]",0.5 to 5 µM
8,"N#Cc1ccc(NS(=O)(=O)c2c[nH]cc2-c2ccc(F)cc2)c(F)c1 [Cpd 217, N-(4-cyano-2-fluoro-phenyl)-4-(4-fluorophenyl)-1H-pyrrole-3-sulfonamide]",5 to 50 µM
9,"N#Cc1ccc(NS(=O)(=O)c2c[nH]cc2-c2ccc(Cl)cc2)c(F)c1 [Cpd 218, 4-(4-chlorophenyl)-N-(4-cyano-2-fluoro-phenyl)-1H-pyrrole-3-sulfonamide]",0.5 to 5 µM
10,"Cc1ccc(-c2c[nH]cc2S(=O)(=O)Nc2ccc(C#N)cc2F)cc1 [Cpd 219, N-(4-cyano-2-fluoro-phenyl)-4-(p-tolyl)-1H-pyrrole-3-sulfonamide]",0.5 to 5 µM
11,"COc1cccc(-c2c[nH]cc2S(=O)(=O)Nc2ccc(C#N)cc2F)c1 [Cpd 220, N-(4-cyano-2-fluoro-phenyl)-4-(3-methoxyphenyl)-1H-pyrrole-3-sulfonamide]",0.5 to 5 µM
12,"Cc1cccc(-c2c[nH]cc2S(=O)(=O)Nc2ccc(C#N)cc2F)c1 [Cpd 221, N-(4-cyano-2-fluoro-phenyl)-4-(m-tolyl)-1H-pyrrole-3-sulfonamide]",0.5 to 5 µM
13,"N#Cc1ccc(NS(=O)(=O)c2c[nH]cc2-c2ccccc2Cl)c(F)c1 [Cpd 222, 4-(2-chlorophenyl)-N-(4-cyano-2-fluoro-phenyl)-1H-pyrrole-3-sulfonamide]",5 to 50 µM
14,"COc1ccccc1-c1c[nH]cc1S(=O)(=O)Nc1ccc(C#N)cc1F [Cpd 223, N-(4-cyano-2-fluoro-phenyl)-4-(2-methoxyphenyl)-1H-pyrrole-3-sulfonamide]",5 to 50 µM
15,"COc1nccc(F)c1-c1cc(S(=O)(=O)Nc2cc(F)c(C(F)(F)F)cc2F)c[nH]1 [Cpd 224, N-[2,5-difluoro-4-(trifluoromethyl)phenyl]-5-(4-fluoro-2-methoxy-3-pyridyl)-1H-pyrrole-3-sulfonamide]",< 0.5 µM
16,"COc1nccc(F)c1-c1cc(S(=O)(=O)Nc2ccc(Cl)cc2F)c[nH]1 [Cpd 227, N-(4-chloro-2-fluoro-phenyl)-5-(4-fluoro-2-methoxy-3-pyridyl)-1H-pyrrole-3-sulfonamide]",0.5 to 5 µM
17,"N#Cc1ccc(NS(=O)(=O)c2c[nH]cc2-c2cccc(Cl)c2)c(F)c1 [Cpd 228, 4-(3-chlorophenyl)-N-(4-cyano-2-fluoro-phenyl)-1H-pyrrole-3-sulfonamide]",< 0.5 µM
18,"N#Cc1ccc(NS(=O)(=O)c2c[nH]cc2-c2ccccn2)c(F)c1 [Cpd 229, N-(4-cyano-2-fluoro-phenyl)-4-(2-pyridyl)-1H-pyrrole-3-sulfonamide]",0.5 to 5 µM
19,"N#Cc1ccc(NS(=O)(=O)c2c[nH]cc2-c2cccc(F)c2)c(F)c1 [Cpd 230, N-(4-cyano-2-fluoro-phenyl)-4-(3-fluorophenyl)-1H-pyrrole-3-sulfonamide]",< 0.5 µM
20,"N#Cc1ccc(NS(=O)(=O)c2c[nH]cc2-c2ccccc2F)c(F)c1 [Cpd 231, N-(4-cyano-2-fluoro-phenyl)-4-(2-fluorophenyl)-1H-pyrrole-3-sulfonamide]",0.5 to 5 µM
21,"O=S(=O)(Nc1cc(F)c(OC(F)F)cc1F)c1c[nH]c(-c2ccccc2)c1 [Cpd 232, N-[4-(difluoromethoxy)-2,5-difluoro-phenyl]-5-phenyl-1H-pyrrole-3-sulfonamide]",< 0.5 µM
